In ChEMBL document CHEMBL5375954, “Discovery and Evaluation of C6-Substituted Pyrazolopyrimidine-Based Bisphosphonate Inhibitors of the Human Geranylgeranyl Pyrophosphate Synthase and Evaluation of Their Antitumor Efficacy in Multiple Myeloma, Pancreatic Ductal Adenocarcinoma, and Colorectal Cancer” (J Med Chem, 2023):
Active and inactive are the calls of the source. The calls are words filed in the database; no cut-off is given here.

Experiments:
[1] = Half life in Sprague-Dawley rat at 3 mg/kg, iv measured for 24 hrs by LC-MS/MS analysis; format: ADME, organism-based; settings: in vivo
[2] = Hepatotoxicity in male NSG mouse xenografted with human RPMI-8226 cells assessed as prominent nucleoli at 3 mg/kg, ip administered 3 times a week for 26 days and measured 48 hrs post last dose by H and E staining based assay; format: toxicity, organism-based; settings: in vivo, 672 h, time 28 day
[3] = Hepatotoxicity in male NSG mouse xenografted with human RPMI-8226 cells assessed as single-cell necrosis at 3 mg/kg, ip administered 3 times a week for 26 days and measured 48 hrs post last dose by H and E staining based assay; format: toxicity, organism-based; settings: in vivo, 672 h, time 28 day
[4] = biological target: T1, Ras-related protein Rap-1A (Homo sapiens) (UniProt P62834); test: Inhibition of RAP-1A prenylation in human MIA PaCa-2 cells incubated for 48 hrs by Western blot analysis; format: cell-based; settings: dose 10-1000 nM
T1 sequence (whole entry): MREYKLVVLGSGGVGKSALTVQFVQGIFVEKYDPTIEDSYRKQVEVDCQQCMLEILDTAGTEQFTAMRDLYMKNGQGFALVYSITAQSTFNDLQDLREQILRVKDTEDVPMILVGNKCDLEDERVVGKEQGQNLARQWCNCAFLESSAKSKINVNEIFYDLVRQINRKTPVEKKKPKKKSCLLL

[5] = Cytotoxicity against human IMR-90 cells assessed as inhibition of cell growth at 10 uM incubated for 72 hrs by MTS assay relative to control; format: toxicity, cell-based
[6] = Hepatotoxicity in male NSG mouse xenografted with human RPMI-8226 cells assessed as serum AST level at 3 mg/kg, ip administered 3 times a week for 26 days and measured 48 hrs post last dose (reference value: 76 to 78 IU/L); format: toxicity, organism-based; settings: in vivo, 672 h, time 28 day
MIA PaCa-2 [7] = test: cells; settings: Homo sapiens, MIA PaCa-2, 72 h
Cytochrome P450 2D6 = Cytochrome P450 2D6 (Homo sapiens, UniProt P10635); test: Inhibition of CYP2D6 (unknown origin); format: ADME
Cytochrome P450 2D6, sequence (P10635 whole entry): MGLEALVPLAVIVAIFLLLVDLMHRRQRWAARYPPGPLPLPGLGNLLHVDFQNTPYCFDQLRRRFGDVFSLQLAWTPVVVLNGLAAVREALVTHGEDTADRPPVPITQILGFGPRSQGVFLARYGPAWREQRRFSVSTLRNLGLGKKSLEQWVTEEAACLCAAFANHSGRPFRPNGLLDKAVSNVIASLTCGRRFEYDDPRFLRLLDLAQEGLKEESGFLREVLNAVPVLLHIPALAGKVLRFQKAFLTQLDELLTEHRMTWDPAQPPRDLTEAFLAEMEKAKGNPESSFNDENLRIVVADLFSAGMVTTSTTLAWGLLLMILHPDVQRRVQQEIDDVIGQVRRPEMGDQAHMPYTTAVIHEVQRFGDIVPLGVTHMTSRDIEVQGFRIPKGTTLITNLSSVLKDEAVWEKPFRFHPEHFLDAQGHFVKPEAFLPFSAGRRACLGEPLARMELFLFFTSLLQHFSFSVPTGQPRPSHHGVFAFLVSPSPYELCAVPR

[8] = Hepatotoxicity in male NSG mouse xenografted with human RPMI-8226 cells assessed as inflammatory infiltrates at 3 mg/kg, ip administered 3 times a week for 26 days and measured 48 hrs post last dose by H and E staining based assay; format: toxicity, organism-based; settings: in vivo, 672 h, time 28 day
[9] = Toxicity in NSG mouse xenografted with human MIA PaCa-2 cells assessed as signs of distress at 3 mg/kg, ip administered 3 times a week for 26 days and measured daily; format: organism-based; settings: in vivo, time 26 day
[10] = Hepatotoxicity in male NSG mouse xenografted with human RPMI-8226 cells assessed as serum ALT level at 3 mg/kg, ip administered 3 times a week for 26 days and measured 48 hrs post last dose (reference value: 35 to 40 IU/L); format: toxicity, organism-based; settings: in vivo, 672 h, time 28 day
Cytochrome P450 2C9 = Cytochrome P450 2C9 (Homo sapiens, UniProt P11712); test: Inhibition of CYP2C9 (unknown origin); format: ADME
Cytochrome P450 2C9, sequence (P11712 whole entry): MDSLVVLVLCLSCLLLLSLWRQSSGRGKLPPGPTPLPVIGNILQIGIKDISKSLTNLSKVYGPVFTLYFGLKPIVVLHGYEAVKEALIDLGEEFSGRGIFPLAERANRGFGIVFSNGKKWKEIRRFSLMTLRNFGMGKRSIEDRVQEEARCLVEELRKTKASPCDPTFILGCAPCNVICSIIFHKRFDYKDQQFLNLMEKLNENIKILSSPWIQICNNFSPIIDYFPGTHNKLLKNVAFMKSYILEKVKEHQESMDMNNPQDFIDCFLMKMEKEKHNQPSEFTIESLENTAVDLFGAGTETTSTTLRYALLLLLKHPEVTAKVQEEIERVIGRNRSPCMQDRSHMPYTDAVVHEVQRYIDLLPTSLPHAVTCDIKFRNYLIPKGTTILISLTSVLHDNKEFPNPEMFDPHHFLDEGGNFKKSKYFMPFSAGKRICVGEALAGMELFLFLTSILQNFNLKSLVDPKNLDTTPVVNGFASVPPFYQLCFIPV

RPMI-8226 [11] = test: Induction of ER stress in human RPMI-8226 cells at 1 uM; format: functional, cell-based
[12] = AUC(0 to t) in Sprague-Dawley rat at 3 mg/kg, iv measured for 24 hrs by LC-MS/MS analysis; format: ADME, organism-based; design: dose 3 mg/kg, time 24 hrs, route iv; settings: in vivo
HCT-116 [13] = test: Induction of apoptosis in human HCT-116 cells assessed as late apoptotic cells at 1 uM incubated for 72 hrs in presence of geranylgeraniol by APC-Annexin-V/7-AAD staining based flow cytometry (reference value: 0%); format: functional
[14] = Metabolic stability in CD-1 mouse liver microsomes assessed as compound remaining incubated for 45 mins in absence of NADPH by LC-MS/MS analysis; format: ADME, Microsome; settings: 0.75 h
[15] = Hepatotoxicity in female NSG mouse xenografted with human RPMI-8226 cells assessed as serum AST level at 3 mg/kg, ip administered 3 times a week for 26 days and measured 48 hrs post last dose (reference value: 84 to 229 IU/L); format: toxicity, organism-based; settings: in vivo, 672 h, time 28 day
[16] = Metabolic stability in human liver microsomes assessed as compound remaining incubated for 45 mins in absence of NADPH by LC-MS/MS analysis; format: ADME, Microsome; settings: 0.75 h
HCT-116 [17] = test: cells; settings: Homo sapiens, HCT-116, 72 h
Cytochrome P450 3A4 = Cytochrome P450 3A4 (Homo sapiens, UniProt P08684); test: Inhibition of CYP3A4 (unknown origin); format: ADME
Cytochrome P450 3A4, sequence (P08684 whole entry): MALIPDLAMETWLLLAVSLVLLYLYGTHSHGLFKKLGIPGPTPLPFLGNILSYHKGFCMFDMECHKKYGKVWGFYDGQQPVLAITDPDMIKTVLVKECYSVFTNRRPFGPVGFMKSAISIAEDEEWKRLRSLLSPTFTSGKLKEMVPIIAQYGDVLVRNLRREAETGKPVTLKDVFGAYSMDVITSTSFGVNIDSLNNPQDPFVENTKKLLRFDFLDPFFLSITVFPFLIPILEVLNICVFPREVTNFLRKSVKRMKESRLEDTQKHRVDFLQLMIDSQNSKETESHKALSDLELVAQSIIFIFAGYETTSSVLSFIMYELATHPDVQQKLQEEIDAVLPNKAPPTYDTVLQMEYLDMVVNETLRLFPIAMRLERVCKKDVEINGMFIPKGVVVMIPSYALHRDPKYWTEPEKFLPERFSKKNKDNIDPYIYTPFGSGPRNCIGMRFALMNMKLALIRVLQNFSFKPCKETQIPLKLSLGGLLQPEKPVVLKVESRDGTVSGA

[18] = Metabolic stability in human liver microsomes assessed as compound remaining incubated for 45 mins in presence of NADPH by LC-MS/MS analysis; format: ADME, Microsome; settings: 0.75 h
[19] = MRT in Sprague-Dawley rat at 3 mg/kg, iv measured for 24 hrs by LC-MS/MS analysis; format: ADME, organism-based; settings: in vivo
[20] = Metabolic stability in CD-1 mouse liver microsomes assessed as compound remaining incubated for 45 mins in presence of NADPH by LC-MS/MS analysis; format: ADME, Microsome; settings: 0.75 h
[21] = Hepatotoxicity in male NSG mouse xenografted with human RPMI-8226 cells assessed as vasculitis or perivasculitis at 3 mg/kg, ip administered 3 times a week for 26 days and measured 48 hrs post last dose by H and E staining based assay; format: toxicity, organism-based; settings: in vivo, 672 h, time 28 day
[22] = Toxicity in NSG mouse xenografted with human MIA PaCa-2 cells assessed as morbidity at 3 mg/kg, ip administered 3 times a week for 26 days and measured daily; format: organism-based; settings: in vivo, time 26 day
MIA PaCa-2 [23] = test: Induction of apoptosis in human MIA PaCa-2 cells assessed as late apoptotic cells at 1 uM incubated for 72 hrs by APC-Annexin-V/7-AAD staining based flow cytometry (reference value: 0.29%); format: functional
HCT-116 [24] = test: Induction of apoptosis in human HCT-116 cells assessed as live cells at 1 uM incubated for 72 hrs by APC-Annexin-V/7-AAD staining based flow cytometry (reference value: 95.3%); format: functional
MIA PaCa-2 [25] = test: Antitumor activity against human MIA PaCa-2 cells xenografted in NSG mouse assessed as difference in tumor volume at 3 mg/kg, ip administered 3 times a week for 26 days and measured 48 hrs post last dose; format: functional, organism-based; settings: time 28.0 day
RPMI-8226 [26] = test: cells; settings: Homo sapiens, RPMI-8226, 72 h
[27] = Hepatotoxicity in female NSG mouse xenografted with human RPMI-8226 cells assessed as prominent nucleoli at 3 mg/kg, ip administered 3 times a week for 26 days and measured 48 hrs post last dose by H and E staining based assay; format: toxicity, organism-based; settings: in vivo, 672 h, time 28 day
MIA PaCa-2 [28] = test: Induction of apoptosis in human MIA PaCa-2 cells at 1 uM incubated for 72 hrs by APC-Annexin-V/7-AAD staining based flow cytometry relative to control; format: functional
[29] = Hepatotoxicity in female NSG mouse xenografted with human RPMI-8226 cells assessed as inflammatory infiltrates at 3 mg/kg, ip administered 3 times a week for 26 days and measured 48 hrs post last dose by H and E staining based assay; format: toxicity, organism-based; settings: in vivo, 672 h, time 28 day
HCT-116 [30] = test: Induction of apoptosis in human HCT-116 cells assessed as late apoptotic cells at 1 uM incubated for 72 hrs by APC-Annexin-V/7-AAD staining based flow cytometry (reference value: 0%); format: functional

Structure (SMILES): Cn1ncc2c(NC(P(=O)(O)O)P(=O)(O)O)nc(-c3cccc(C(=O)Nc4ccc(C(F)(F)F)cc4)c3)nc21
- half-life [1]: 3.84 h
- Activity [2]: Non-Toxic
- Activity [3]: Non-Toxic
- inhibition [4]: Dose-Dependent Effect
- inhibition at 72 h, 10 µM [5]: ~20%
- Activity [6]: 96 IU/L
- EC50 (MIA PaCa-2 [7]): 790 nM
- IC50 (Cytochrome P450 2D6): > 40000 nM
- Activity [8]: Non-Toxic
- Activity [9]: Non-Toxic
- Activity [10]: 42 IU/L
- IC50 (Cytochrome P450 2C9): > 40000 nM
- Activity (RPMI-8226 [11]): Active
- AUC(0-t) at 24 h [12]: 254 µg·h/mL
- Activity (HCT-116 [13]): 2.17%
- Stability [14]: 121%
- Activity [15]: 199 IU/L
- Stability [16]: 100%
- EC50 (HCT-116 [17]): 580 nM
- IC50 (Cytochrome P450 3A4): > 40000 nM
- Stability [18]: 107%
- MRT [19]: 4.68 h
- Stability [20]: 103%
- Activity [21]: Non-Toxic
- Activity [22]: Non-Toxic
- Activity (MIA PaCa-2 [23]): 41%
- Activity (HCT-116 [24]): 56.6%
- Activity (MIA PaCa-2 [25]): Active
- EC50 (RPMI-8226 [26]): 70 nM
- Activity [27]: Non-Toxic
- Activity (MIA PaCa-2 [28]): ~50%
- Activity [29]: Non-Toxic
- Activity (HCT-116 [30]): 18%
